Results published in patent US10874745B2, “Antimicrobial peptides and methods of treating gram-negative pathogens: polar and non-polar face analogs” (priority 2017, dated 2020).
Converted amounts (≈) assume the structure as drawn. “And” between values parts separate entries of the source, which are not always exact repeats. Equal entries are not always repeated. Where two headings read alike, the source gives them in different places. Non-standard residues stand in square brackets, D forms with d. Residues, ends and D or L forms follow the SMILES beside them. *: point of attachment. MeO(CH2CH2O)23CH2CH2CO = COCCOCCOCCOCCOCCOCCOCCOCCOCCOCCOCCOCCOCCOCCOCCOCCOCCOCCOCCOCCOCCOCCOCCOCCC(=O)*; dDab = NCC[C@@H](N)C(=O)O; dDap = NC[C@@H](N)C(=O)O

Key:
[1] = tested on: human red blood cells; assay: Hemolytic activity; format: cell-based; conditions: for Hemolytic activity HC30: 18 h
Procedure: (§1) Hemoglobin release was determined spectrophotometrically at 570 nm. […] […] […] With the peptides used in this study the inventors used the HC30/MIC ratio value to calculate the therapeutic index.

[2] = tested on: A. baumannii strain 649; format: cell-based, Acinetobacter baumannii
Text: A critical component to the systemic use of AMPs to treat bacterial infections is the extent of AMP binding to serum proteins. In addition, since only the unbound AMP is available to interact with the therapeutic target, the extent of serum binding can have significant effects on efficacy. […] This assay estimates the in vivo bioavailability of the AMPs. […] An increase in MIC in serum is attributed to inhibition of antimicrobial activity due to serum protein binding.

[3] = tested on: A. baumannii strains resistant to Polymyxin B and Colistin; format: cell-based
[4] = Hemolytic activity; format: cell-based, human; conditions: 1% human erythrocytes (red blood cells), pH 7.4
Procedure: as §1

[5] = 50% hemolysis of human red blood cells after 18 hours at 37° C.
[6] = 50% hemolysis of human red blood cells after 18 hours at 37° C., read-out: HC50

Row | SMILES | Hemolytic activity HC30 [1] | MIC, 25% human serum [2] | MIC, No serum [2] | MIC ([3]; strain MB9941 (Table 9C)) | MIC ([3]; strain MB9949 (Table 9C)) | MIC ([3]; strain MB9951 (Table 9C)) | MIC ([3]; strain MB9952 (Table 9C)) | MIC ([3]; strain MB9953 (Table 9C)) | MIC ([3]; strain MB9955 (Table 9C)) | MIC ([3]; strain MB9963 (Table 9C)) | HC50 [1] | HC50 [1, 5] | HC50 at 18 h ([4]; human) | HC50 at 18 h [4, 6] | Hemolysis of human red blood cells, in words ([1]; FIG. 10)
1 | CC(=O)N[C@H](C)C(=O)N[C@H](CC(C)C)C(=O)N[C@H](CCCCN)C(=O)N[C@H](CO)C(=O)N[C@H](CC(C)C)C(=O)N[C@H](CC(C)C)C(=O)N[C@H](CCCCN)C(=O)N[C@@H](C(=O)N[C@H](CC(C)C)C(=O)N[C@H](CO)C(=O)N[C@H](CCCCN)C(=O)N[C@H](C)C(=O)N[C@H](CCCCN)C(=O)N[C@H](C)C(=O)N[C@H](C)C(=O)N[C@H](CCCCN)C(=O)N[C@H](CC(C)C)C(=O)N[C@H](CCCCN)C(=O)N[C@@H](C(=O)N[C@H](CC(C)C)C(=O)N[C@H](CC(C)C)C(=O)N[C@H](CCCCN)C(=O)N[C@H](C)C(=O)N[C@H](CC(C)C)C(=O)N[C@H](CO)C(=O)N[C@H](CCCCN)C(N)=O)[C@H](C)O)[C@H](C)O [Peptide D33] | 89 µM | 0.7 µM (≈ 1.97 µg/mL) | 0.1 µM (≈ 0.281 µg/mL) |  |  |  |  |  |  |  |  |  |  |  | 
2 | CC(=O)N[C@H](C)C(=O)N[C@H](CC(C)C)C(=O)N[C@H](CCCCN)C(=O)N[C@H](CO)C(=O)N[C@H](CC(C)C)C(=O)N[C@H](CC(C)C)C(=O)N[C@H](CCCCN)C(=O)N[C@@H](C(=O)N[C@H](CC(C)C)C(=O)N[C@H](CO)C(=O)N[C@H](C)C(=O)N[C@H](C)C(=O)N[C@H](CCCCN)C(=O)N[C@H](CCCCN)C(=O)N[C@H](CCCCN)C(=O)N[C@H](CCCCN)C(=O)N[C@H](CC(C)C)C(=O)N[C@H](C)C(=O)N[C@@H](C(=O)N[C@H](CC(C)C)C(=O)N[C@H](CC(C)C)C(=O)N[C@H](CCCCN)C(=O)N[C@H](C)C(=O)N[C@H](CC(C)C)C(=O)N[C@H](CO)C(=O)N[C@H](CCCCN)C(N)=O)[C@H](C)O)[C@H](C)O [Peptide D34] | 126 µM | 1.4 µM (≈ 3.93 µg/mL) | 0.2 µM (≈ 0.562 µg/mL) |  |  |  |  |  |  |  |  |  |  |  | 
3 | CC(=O)N[C@H](CCCCN)C(=O)N[C@H](CC(C)C)C(=O)N[C@H](CCN)C(=O)N[C@H](CO)C(=O)N[C@H](CC(C)C)C(=O)N[C@H](CC(C)C)C(=O)N[C@H](CCN)C(=O)N[C@@H](C(=O)N[C@H](CC(C)C)C(=O)N[C@H](CO)C(=O)N[C@H](CCN)C(=O)N[C@H](C)C(=O)N[C@H](CCCCN)C(=O)N[C@H](C)C(=O)N[C@H](C)C(=O)N[C@H](CCCCN)C(=O)N[C@H](CC(C)C)C(=O)N[C@H](CCN)C(=O)N[C@@H](C(=O)N[C@H](CC(C)C)C(=O)N[C@H](CC(C)C)C(=O)N[C@H](CCN)C(=O)N[C@H](C)C(=O)N[C@H](CC(C)C)C(=O)N[C@H](CO)C(=O)N[C@H](CCN)C(N)=O)[C@H](C)O)[C@H](C)O [Peptide D86, Ac-KL(Dbu)SLL(Dbu)TLS(Dbu)AKAAKL(Dbu)TLL(Dbu)ALS(Dbu)-amide] (Ac-[dK][dL][dDab][dS][dL][dL][dDab][dT][dL][dS][dDab][dA][dK][dA][dA][dK][dL][dDab][dT][dL][dL][dDab][dA][dL][dS][dDab]-NH2) |  |  |  | 0.7 µM (≈ 1.89 µg/mL) | 0.7 µM (≈ 1.89 µg/mL) | 1.4 µM (≈ 3.78 µg/mL) | 0.7 µM (≈ 1.89 µg/mL) | 1.4 µM (≈ 3.78 µg/mL) | 0.7 µM (≈ 1.89 µg/mL) | 1.4 µM (≈ 3.78 µg/mL) | >741.5 µM | > 742 µM | > 2000 µg/mL and > 742 µM |  | 
4 | COCCOCCOCCOCCOCCOCCOCCOCCOCCOCCOCCOCCOCCOCCOCCOCCOCCOCCOCCOCCOCCOCCOCCOCCC(=O)N[C@H](CCCCN)C(=O)N[C@H](CC(C)C)C(=O)N[C@H](CCN)C(=O)N[C@H](CO)C(=O)N[C@H](CC(C)C)C(=O)N[C@H](CC(C)C)C(=O)N[C@H](CCN)C(=O)N[C@@H](C(=O)N[C@H](CC(C)C)C(=O)N[C@H](CO)C(=O)N[C@H](CCN)C(=O)N[C@H](C)C(=O)N[C@H](CCCCN)C(=O)N[C@H](C)C(=O)N[C@H](C)C(=O)N[C@H](CCCCN)C(=O)N[C@H](CC(C)C)C(=O)N[C@H](CCN)C(=O)N[C@@H](C(=O)N[C@H](CC(C)C)C(=O)N[C@H](CC(C)C)C(=O)N[C@H](CCN)C(=O)N[C@H](C)C(=O)N[C@H](CC(C)C)C(=O)N[C@H](CO)C(=O)N[C@H](CCN)C(N)=O)[C@H](C)O)[C@H](C)O [Peptide D86PEG1, m-dPEG24-D86] ({MeO(CH2CH2O)23CH2CH2CO}-[dK][dL][dDab][dS][dL][dL][dDab][dT][dL][dS][dDab][dA][dK][dA][dA][dK][dL][dDab][dT][dL][dL][dDab][dA][dL][dS][dDab]-NH2) |  |  |  | 1.1 µM (≈ 4.13 µg/mL) | 2.1 µM (≈ 7.88 µg/mL) | 4.1 µM (≈ 15.4 µg/mL) | 4.1 µM (≈ 15.4 µg/mL) | 8.3 µM (≈ 31.2 µg/mL) | 1.1 µM (≈ 4.13 µg/mL) | 4.1 µM (≈ 15.4 µg/mL) |  | 136.7 µM |  | 363 µg/mL and 137 µM | 
5 | CC(=O)N[C@H](CCCCN)C(=O)N[C@H](CC(C)C)C(=O)N[C@H](CCCCN)C(=O)N[C@H](CO)C(=O)N[C@H](CC(C)C)C(=O)N[C@H](CC(C)C)C(=O)N[C@H](CCCCN)C(=O)N[C@@H](C(=O)N[C@H](CC(C)C)C(=O)N[C@H](CO)C(=O)N[C@H](C)C(=O)N[C@H](C)C(=O)N[C@H](CCCCN)C(=O)N[C@H](CCCCN)C(=O)N[C@H](CCCCN)C(=O)N[C@H](CCCCN)C(=O)N[C@H](CC(C)C)C(=O)N[C@H](C)C(=O)N[C@@H](C(=O)N[C@H](CC(C)C)C(=O)N[C@H](CC(C)C)C(=O)N[C@H](CCCCN)C(=O)N[C@H](C)C(=O)N[C@H](CC(C)C)C(=O)N[C@H](CO)C(=O)N[C@H](CCCCN)C(N)=O)[C@H](C)O)[C@H](C)O [Peptide D88, Ac-KL(Lys)SLL(Lys)TLSAAK(Lys)(Lys)KLATLL(Lys)ALS(Lys)-amide] (Ac-[dK][dL][dK][dS][dL][dL][dK][dT][dL][dS][dA][dA][dK][dK][dK][dK][dL][dA][dT][dL][dL][dK][dA][dL][dS][dK]-NH2) |  |  |  | 0.7 µM (≈ 2.01 µg/mL) | 0.7 µM (≈ 2.01 µg/mL) | 0.3 µM (≈ 0.86 µg/mL) | 0.3 µM (≈ 0.86 µg/mL) | 0.3 µM (≈ 0.86 µg/mL) | 0.3 µM (≈ 0.86 µg/mL) | 0.3 µM (≈ 0.86 µg/mL) | 80.6 µM |  | 231 µg/mL and 80.6 µM |  | 
6 | CC(=O)N[C@H](CCCCN)C(=O)N[C@H](CC(C)C)C(=O)N[C@H](CCN)C(=O)N[C@H](CO)C(=O)N[C@H](CC(C)C)C(=O)N[C@H](CC(C)C)C(=O)N[C@H](CCN)C(=O)N[C@@H](C(=O)N[C@H](CC(C)C)C(=O)N[C@H](CO)C(=O)N[C@H](CCN)C(=O)N[C@H](C)C(=O)N[C@H](CCCCN)C(=O)N[C@H](C)C(=O)N[C@H](C)C(=O)N[C@H](CCCCN)C(=O)N[C@H](CC(C)C)C(=O)N[C@H](CCN)C(=O)N[C@@H](C(=O)N[C@H](CC(C)C)C(=O)N[C@H](CC(C)C)C(=O)N[C@H](CCN)C(=O)N[C@H](C)C(=O)N[C@H](CC(C)C)C(=O)N[C@H](CO)C(=O)N[C@H](CO)C(N)=O)[C@H](C)O)[C@H](C)O [Peptide D102, Ac-KL(Dbu)SLL(Dbu)TLS(Dbu)AKAAKL(Dbu)TLL(Dbu)ALSS-amide] (Ac-[dK][dL][dDab][dS][dL][dL][dDab][dT][dL][dS][dDab][dA][dK][dA][dA][dK][dL][dDab][dT][dL][dL][dDab][dA][dL][dS][dS]-NH2) |  |  |  |  |  |  |  |  |  |  |  |  |  | > 2000 µg/mL and > 708 µM | basically no hemolysis
7 | CC(=O)N[C@H](CCCCN)C(=O)N[C@H](CC(C)C)C(=O)N[C@H](CN)C(=O)N[C@H](CO)C(=O)N[C@H](CC(C)C)C(=O)N[C@H](CC(C)C)C(=O)N[C@H](CN)C(=O)N[C@@H](C(=O)N[C@H](CC(C)C)C(=O)N[C@H](CO)C(=O)N[C@H](CN)C(=O)N[C@H](C)C(=O)N[C@H](CCCCN)C(=O)N[C@H](C)C(=O)N[C@H](C)C(=O)N[C@H](CCCCN)C(=O)N[C@H](CC(C)C)C(=O)N[C@H](CN)C(=O)N[C@@H](C(=O)N[C@H](CC(C)C)C(=O)N[C@H](CC(C)C)C(=O)N[C@H](CN)C(=O)N[C@H](C)C(=O)N[C@H](CC(C)C)C(=O)N[C@H](CO)C(=O)N[C@H](CN)C(N)=O)[C@H](C)O)[C@H](C)O [Peptide D105, Ac-KL(Dpr)SLL(Dpr)TLS(Dpr)AKAAKL(Dpr)TLL(Dpr)ALS(Dpr)-amide] |  |  |  | 0.8 µM (≈ 2.09 µg/mL) | 0.8 µM (≈ 2.09 µg/mL) | 3.0 µM (≈ 7.84 µg/mL) | 0.8 µM (≈ 2.09 µg/mL) | 3.0 µM (≈ 7.84 µg/mL) | 0.8 µM (≈ 2.09 µg/mL) | 1.5 µM (≈ 3.92 µg/mL) |  |  | > 3000 µg/mL and > 1.15 mM |  | 
8 | CC(=O)N[C@H](CCCCN)C(=O)N[C@H](CC(C)C)C(=O)N[C@H](CN)C(=O)N[C@H](CO)C(=O)N[C@H](CC(C)C)C(=O)N[C@H](CC(C)C)C(=O)N[C@H](CN)C(=O)N[C@@H](C(=O)N[C@H](CC(C)C)C(=O)N[C@H](CO)C(=O)N[C@H](C)C(=O)N[C@H](C)C(=O)N[C@H](CCCCN)C(=O)N[C@H](CN)C(=O)N[C@H](CN)C(=O)N[C@H](CCCCN)C(=O)N[C@H](CC(C)C)C(=O)N[C@H](C)C(=O)N[C@@H](C(=O)N[C@H](CC(C)C)C(=O)N[C@H](CC(C)C)C(=O)N[C@H](CN)C(=O)N[C@H](C)C(=O)N[C@H](CC(C)C)C(=O)N[C@H](CO)C(=O)N[C@H](CN)C(N)=O)[C@H](C)O)[C@H](C)O [Peptide D106, Ac-KL(Dpr)SLL(Dpr)TLSAAK(Dpr)(Dpr)KLATLL(Dpr)ALs(Dpr)-amide] (Ac-[dK][dL][dDap][dS][dL][dL][dDap][dT][dL][dS][dA][dA][dK][dDap][dDap][dK][dL][dA][dT][dL][dL][dDap][dA][dL][dS][dDap]-NH2) |  |  |  | 0.8 µM (≈ 2.09 µg/mL) | 0.8 µM (≈ 2.09 µg/mL) | 1.5 µM (≈ 3.92 µg/mL) | 0.8 µM (≈ 2.09 µg/mL) | 0.8 µM (≈ 2.09 µg/mL) | 0.4 µM (≈ 1.05 µg/mL) | 0.8 µM (≈ 2.09 µg/mL) | 340.2 µM |  | 889 µg/mL and 340 µM |  | 
